Holding throughout (details): in vivo
The test system of data set [1] is Rattus norvegicus. Nature of the data set: Toxicity in Sprague-Dawley rat assessed as terminal body weight at 40 mg/kg, po administered via gavage (reference value: 517 +/- 55 g). The class given is organism-based. Also noted: dose 40 mg/kg, route oral.
Data set [2] concerns Rattus norvegicus. The data set is described as follows: Hepatotoxicity in Sprague-Dawley rat assessed as copies of mitochondrial DNA per cell in sciatic nerves at 100 mg/kg, po administered via gavage (reference value: 457 +/- 182 no_unit). Set-up: dose 100 mg/kg, route oral. The class given is toxicity, organism-based, Sciatic nerve.
The subject of data set [3] is Rattus norvegicus. Nature of the data set: Hepatotoxicity in Sprague-Dawley rat assessed as plasma GPT level at 15 mg/kg, po administered via gavage (reference value: 78.3 +/- 8.2 U/l). The class given is toxicity, organism-based. Also noted: dose 15 mg/kg, route oral.
In data set [4] the test system is Rattus norvegicus. The data set is described as follows: Hepatotoxicity in Sprague-Dawley rat assessed as copies of mitochondrial DNA per cell in liver at 40 mg/kg, po administered via gavage (reference value: 400 +/- 86). The class given is toxicity, organism-based. Set-up: dose 40 mg/kg, route oral.
The subject of data set [5] is Rattus norvegicus. The data set is described as follows: Toxicity in Sprague-Dawley rat assessed as terminal body weight at 100 mg/kg, po administered via gavage (reference value: 517 +/- 55 g). The class given is organism-based. Also noted: dose 100 mg/kg, route oral.
Data set [6] deals with Rattus norvegicus. Nature of the data set: Hepatotoxicity in Sprague-Dawley rat assessed as copies of mitochondrial DNA per cell in gastrocnemius muscle at 15 mg/kg, po administered via gavage (reference value: 457 +/- 182 no_unit). Set-up: dose 15 mg/kg, route oral. The class given is toxicity, organism-based.
Data set [7] has as its system Rattus norvegicus. Nature of the data set: Hepatotoxicity in Sprague-Dawley rat assessed as copies of mitochondrial DNA per cell in liver at 100 mg/kg, po administered via gavage (reference value: 400 +/- 86 no_unit). The class given is toxicity, organism-based. Also noted: dose 100 mg/kg, route oral.
In data set [8] the test system is Rattus norvegicus. The data set is described as follows: Toxicity in Sprague-Dawley rat assessed as terminal body weight at 15 mg/kg, po administered via gavage (reference value: 517 +/- 55 g). In kind it is organism-based. Set-up: dose 15 mg/kg, route oral.
In data set [9] the test system is Rattus norvegicus. The data set is described as follows: Hepatotoxicity in Sprague-Dawley rat assessed as copies of mitochondrial DNA per cell in sciatic nerves at 40 mg/kg, po administered via gavage (reference value: 457 +/- 182 no_unit). In kind it is toxicity, organism-based, Sciatic nerve. Also noted: dose 40 mg/kg, route oral.
Data set [10] relates to Rattus norvegicus. The data set is described as follows: Toxicity in Sprague-Dawley rat assessed as liver weight at 40 mg/kg, po administered via gavage (reference value: 18 +/- 2.8 g). In kind it is organism-based. Also noted: dose 40 mg/kg, route oral.
Data set [11] relates to Rattus norvegicus. The data set is described as follows: Hepatotoxicity in Sprague-Dawley rat assessed as copies of mitochondrial DNA per cell in inguinal fat pads at 15 mg/kg, po administered via gavage (reference value: 457 +/- 182 no_unit). The class given is toxicity, organism-based, Fat pad. Also noted: dose 15 mg/kg, route oral.
The subject of data set [12] is Rattus norvegicus. The data set is described as follows: Hepatotoxicity in Sprague-Dawley rat assessed as copies of mitochondrial DNA per cell in inguinal fat pads at 100 mg/kg, po administered via gavage (reference value: 457 +/- 182 no_unit). The class given is toxicity, organism-based, Fat pad. Set-up: dose 100 mg/kg, route oral.
Data set [13] concerns Rattus norvegicus. The data set is described as follows: Hepatotoxicity in Sprague-Dawley rat assessed as copies of mitochondrial DNA per cell in inguinal fat pads at 40 mg/kg, po administered via gavage (reference value: 457 +/- 182 no_unit). Set-up: dose 40 mg/kg, route oral. In kind it is toxicity, organism-based, Fat pad.
In data set [14] the test system is Rattus norvegicus. Nature of the data set: Hepatotoxicity in Sprague-Dawley rat assessed as plasma GPT level at 40 mg/kg, po administered via gavage (reference value: 78.3 +/- 8.2 U/l). The class given is toxicity, organism-based. Also noted: dose 40 mg/kg, route oral.
Data set [15] has as its system Rattus norvegicus. The data set is described as follows: Toxicity in Sprague-Dawley rat assessed as mortality at 100 mg/kg, po administered via gavage. In kind it is organism-based. Set-up: dose 100 mg/kg, route oral.
Data set [16] relates to Rattus norvegicus. Nature of the data set: Toxicity in Sprague-Dawley rat assessed as mortality at 40 mg/kg, po administered via gavage. In kind it is organism-based. Also noted: dose 40 mg/kg, route oral.
For data set [17], the system named is Rattus norvegicus. The data set is described as follows: Hepatotoxicity in Sprague-Dawley rat assessed as copies of mitochondrial DNA per cell in gastrocnemius muscle at 40 mg/kg, po administered via gavage (reference value: 457 +/- 182 no_unit). In kind it is toxicity, organism-based. Set-up: dose 40 mg/kg, route oral.
Data set [18] has as its system Rattus norvegicus. Nature of the data set: Hepatotoxicity in Sprague-Dawley rat assessed as copies of mitochondrial DNA per cell in liver at 15 mg/kg, po administered via gavage (reference value: 400 +/- 86). In kind it is toxicity, organism-based. Set-up: dose 15 mg/kg, route oral.
Data set [19] has as its system Rattus norvegicus. Nature of the data set: Hepatotoxicity in Sprague-Dawley rat assessed as copies of mitochondrial DNA per cell in sciatic nerves at 15 mg/kg, po administered via gavage (reference value: 457 +/- 182 no_unit). The class given is toxicity, organism-based, Sciatic nerve. Also noted: dose 15 mg/kg, route oral.
For data set [20], the system named is Rattus norvegicus. Nature of the data set: Toxicity in Sprague-Dawley rat assessed as liver weight at 100 mg/kg, po administered via gavage (reference value: 18 +/- 2.8 g). The class given is organism-based. Also noted: dose 100 mg/kg, route oral.
Data set [21] has as its system Rattus norvegicus. The data set is described as follows: Toxicity in Sprague-Dawley rat assessed as liver weight at 15 mg/kg, po administered via gavage (reference value: 18 +/- 2.8 g). In kind it is organism-based. Also noted: dose 15 mg/kg, route oral.
Data set [22] relates to Rattus norvegicus. Nature of the data set: Hepatotoxicity in Sprague-Dawley rat assessed as effect on plasma total bilirubin level at 15 to 100 mg/kg, po administered via gavage. The class given is toxicity, organism-based. Set-up: dose 15-100 mg/kg, route oral.
Data set [23] has as its system Rattus norvegicus. Nature of the data set: Toxicity in Sprague-Dawley rat assessed as mortality at 15 mg/kg, po administered via gavage. In kind it is organism-based. Also noted: dose 15 mg/kg, route oral.
Data set [24] relates to Rattus norvegicus. The data set is described as follows: Hepatotoxicity in Sprague-Dawley rat assessed as copies of mitochondrial DNA per cell in gastrocnemius muscle at 100 mg/kg, po administered via gavage (reference value: 457 +/- 182 no_unit). In kind it is toxicity, organism-based. Also noted: dose 100 mg/kg, route oral.
The test system of data set [25] is Rattus norvegicus. Nature of the data set: Hepatotoxicity in Sprague-Dawley rat assessed as plasma GPT level at 100 mg/kg, po administered via gavage (reference value: 78.3 +/- 8.2 U/l). In kind it is toxicity, organism-based. Also noted: dose 100 mg/kg, route oral.

Among the data in ChEMBL document CHEMBL1649519, “Mitochondrial DNA depletion in rat liver induced by fosalvudine tidoxil, a novel nucleoside reverse transcriptase inhibitor prodrug” (Antimicrob Agents Chemother, 2009) are Activity values, retold here.

As for `CCCCCCCCCCCCSC[C@@H](COP(=O)(O)OC[C@H]1O[C@@H](n2cc(C)c(=O)[nH]c2=O)C[C@@H]1F)OCCCCCCCCCC` [FOSALVUDINE TIDOXIL], the Activity in the data set on Rattus norvegicus [1] stood at 465 g; with Rattus norvegicus [2], 213; with Rattus norvegicus [3], 71 U/l; in the data set with Rattus norvegicus [4] it was 254; in the data set on Rattus norvegicus [5] it was 428 g; in the data set with Rattus norvegicus [6] it was 475. Moreover, the Activity in the data set with Rattus norvegicus [7] turned out to be 188; in the data set on Rattus norvegicus [8] it was 459 g; in the data set with Rattus norvegicus [9], 205; in the data set on Rattus norvegicus [10], 15.6 g; in the data set on Rattus norvegicus [11], 134; in the data set with Rattus norvegicus [12] it was 158. The Activity in the data set on Rattus norvegicus [13] is recorded as 159; in the data set on Rattus norvegicus [14] it was 80.5 U/L; in the data set on Rattus norvegicus [15] it was “Toxic”; in the data set with Rattus norvegicus [16], “Toxic”; in the data set on Rattus norvegicus [17] it was 534; with Rattus norvegicus [18], 249. In addition, the Activity in the data set with Rattus norvegicus [19] is 196; in the data set on Rattus norvegicus [20], 14.5 g; with Rattus norvegicus [21] it was 16.8 g; in the data set on Rattus norvegicus [22], “Non-toxic”; with Rattus norvegicus [23] it was “Toxic”; in the data set on Rattus norvegicus [24] it was 548. Moreover, the Activity in the data set on Rattus norvegicus [25] came out at 96.7 U/L.

For the compound `O=c1[nH]cnc2c1ncn2[C@H]1CC[C@@H](CO)O1` [DIDANOSINE], the Activity was 219 with Rattus norvegicus [2]; 501 g in the data set with Rattus norvegicus [5]; 193 in the data set on Rattus norvegicus [7]; 129 in the data set on Rattus norvegicus [12]; “Non-toxic” with Rattus norvegicus [15]; 16.2 g in the data set with Rattus norvegicus [20]. The Activity result is on record as “Non-toxic” in the data set with Rattus norvegicus [22], 489 with Rattus norvegicus [24] and 68.8 U/L in the data set on Rattus norvegicus [25].
